In patent publication US12448369B2 (Edgewise Therapeutics, Inc., priority 2023, dated 2025):

What was measured:
[1] = test system: Rabbit Psoas myofibrils (skeletal myosin ATPase); assay: Myofibril ATPase assay, rabbit psoas (skeletal) myofibrils; type: biochemical; settings: rabbit psoas myofibrils
Method in brief: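 Readout: A340 decline from NADH oxidation, PK/LDH-coupled to ADP release; kinetic reads over 75 min. Buffer: pCa (PIPES, CaCl2, EGTA), pH 7.0. Linear-regression slopes vs vehicle, 4PL fit; reported as concentration giving 75% (Y75) or 125% (Y125) of vehicle activity.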

[2] = molecular target: T1, Porcine ventricle myofibrils (ventricular myosin ATPase) (Sus scrofa, UniProt P79293); assay: Myofibril ATPase assay, porcine ventricle myofibrils; type: biochemical, porcine (Yucatan minipigs); settings: porcine ventricle myofibrils
T1 construct: Myofibrils from porcine cardiac muscle was isolated from the left ventricle of Yucatan minipigs; tissue Exemplar Genetics; host or cells: left ventricle of Yucatan minipigs, myofibrils prepared in house
T1 sequence (P79293 whole entry): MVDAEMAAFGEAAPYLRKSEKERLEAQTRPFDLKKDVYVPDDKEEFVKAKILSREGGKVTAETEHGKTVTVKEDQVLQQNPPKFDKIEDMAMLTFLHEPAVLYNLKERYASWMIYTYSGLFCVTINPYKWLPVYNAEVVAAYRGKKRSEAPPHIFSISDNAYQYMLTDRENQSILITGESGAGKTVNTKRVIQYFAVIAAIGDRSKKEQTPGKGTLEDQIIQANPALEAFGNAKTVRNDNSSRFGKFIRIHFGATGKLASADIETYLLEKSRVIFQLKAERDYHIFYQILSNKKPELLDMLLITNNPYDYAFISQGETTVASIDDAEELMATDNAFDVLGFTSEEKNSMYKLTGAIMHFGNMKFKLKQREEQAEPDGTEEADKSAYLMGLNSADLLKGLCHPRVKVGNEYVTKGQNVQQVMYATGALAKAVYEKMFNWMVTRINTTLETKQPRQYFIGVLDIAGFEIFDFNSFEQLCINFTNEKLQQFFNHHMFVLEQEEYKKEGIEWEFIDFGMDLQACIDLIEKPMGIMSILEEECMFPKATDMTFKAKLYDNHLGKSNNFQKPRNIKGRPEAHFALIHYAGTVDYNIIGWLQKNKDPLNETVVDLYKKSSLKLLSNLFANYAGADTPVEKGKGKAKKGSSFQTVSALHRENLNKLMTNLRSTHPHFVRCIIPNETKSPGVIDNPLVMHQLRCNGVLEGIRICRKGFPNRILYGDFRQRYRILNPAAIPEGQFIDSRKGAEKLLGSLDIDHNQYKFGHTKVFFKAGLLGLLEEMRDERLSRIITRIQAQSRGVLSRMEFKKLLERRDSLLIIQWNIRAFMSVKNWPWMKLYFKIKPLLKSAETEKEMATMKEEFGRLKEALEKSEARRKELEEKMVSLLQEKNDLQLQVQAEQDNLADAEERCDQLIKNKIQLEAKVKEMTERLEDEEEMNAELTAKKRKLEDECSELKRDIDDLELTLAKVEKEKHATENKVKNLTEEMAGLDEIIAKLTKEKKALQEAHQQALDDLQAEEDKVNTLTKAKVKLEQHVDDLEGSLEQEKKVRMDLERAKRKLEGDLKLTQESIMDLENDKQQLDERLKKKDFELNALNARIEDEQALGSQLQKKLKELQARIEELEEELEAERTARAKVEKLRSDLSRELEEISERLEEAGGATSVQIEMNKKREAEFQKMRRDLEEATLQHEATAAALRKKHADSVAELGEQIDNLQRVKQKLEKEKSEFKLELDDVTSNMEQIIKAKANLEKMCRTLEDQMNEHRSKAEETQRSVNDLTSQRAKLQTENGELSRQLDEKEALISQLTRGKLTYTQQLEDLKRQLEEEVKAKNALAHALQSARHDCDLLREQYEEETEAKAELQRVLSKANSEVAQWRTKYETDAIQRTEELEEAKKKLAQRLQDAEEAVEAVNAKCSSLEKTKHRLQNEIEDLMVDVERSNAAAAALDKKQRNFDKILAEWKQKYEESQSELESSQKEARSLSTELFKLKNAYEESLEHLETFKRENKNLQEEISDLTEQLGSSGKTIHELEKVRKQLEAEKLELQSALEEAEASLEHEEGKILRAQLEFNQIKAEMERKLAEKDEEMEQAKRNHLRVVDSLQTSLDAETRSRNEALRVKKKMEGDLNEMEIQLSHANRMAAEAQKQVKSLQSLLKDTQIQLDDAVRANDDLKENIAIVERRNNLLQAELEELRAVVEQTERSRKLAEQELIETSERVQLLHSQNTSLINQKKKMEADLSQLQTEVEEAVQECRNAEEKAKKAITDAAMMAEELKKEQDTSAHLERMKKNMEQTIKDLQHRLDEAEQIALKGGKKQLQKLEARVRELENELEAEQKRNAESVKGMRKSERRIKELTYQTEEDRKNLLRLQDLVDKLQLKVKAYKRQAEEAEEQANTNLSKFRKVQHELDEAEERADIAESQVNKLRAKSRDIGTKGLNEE
Method in brief: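 In a coupled enzyme format, ADP from myofibril ATPase drives NADH oxidation, monitored kinetically at 340 nm for 75 min using minipig ventricle myofibrils. Effective concentrations giving 25% loss or gain of activity relative to vehicle were calculated from 4-parameter fits.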

[3] = test system: Porcine atria myofibrils (atrial myosin ATPase); assay: Myofibril ATPase assay, porcine atria myofibrils; type: biochemical; settings: porcine atria myofibrils
Method in brief: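 Coupled PK-LDH readout, NADH loss at 340 nm, kinetic 75 min. Porcine atria myofibrils, pCa buffer (PIPES/CaCl2/EGTA, pH 7.0). Slopes (mAU/min) normalized to vehicle = 100%, 4-parameter fit; Y75 or Y125 reported.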

[4] = Y75 value (75% activity relative to no compound)

| Skeletal EC25 ([1]; Y75 value) [nM] | Ventricular EC25 ([2]; Y75 value) [nM] | Atrial EC25 [3, 4] [nM] | Skeletal EC25 ([1]; Y75 value (no ‡ mark)) [nM] | Ventricular EC25 ([2]; Y75 value (no ‡ mark)) [nM] | Atrial EC25 ([3]; Y75 value (no ‡ mark)) [nM] | SMILES |
| --- | --- | --- | --- | --- | --- | --- |
| 10 | 770 | 60 |  |  |  | Cc1c(CC(=O)N[C@@H](C)c2ccc(F)cc2F)c(=O)[nH]c2ccnc(OCC(F)F)c12 [compound 380] |
|  |  |  | 100000 | 100000 | 100000 | C[C@H](NC(=O)C(F)(F)c1cc2cc(F)ccc2[nH]c1=O)c1cc(C#N)ccn1 (single isomer, unassigned) [compound 2574] |
| 430 | 43640 | 1660 |  |  |  | C[C@H](NC(=O)[C@H](C)c1cc2c(F)nccc2[nH]c1=O)c1ccc(F)cc1F (single isomer, unassigned) [compound 368] |
| 100000 | 100000 | 100000 |  |  |  | C[C@H](NC(=O)Cc1cc2nc(O)ccc2[nH]c1=O)c1ccc(F)cc1F [compound 300] |
|  |  |  | 290 | 1620 | 1440 | Cc1nc([C@H](C)NC(=O)Cc2c(C)c3c(C)c(F)ccc3[nH]c2=O)ncc1C#N (single isomer, unassigned) [compound 4840] |
|  |  |  | 2250 | 100000 | 100000 | C[C@@H](NC(=O)Cc1cc2c(C(F)(F)F)c(F)ccc2[nH]c1=O)c1ncc(C#N)cn1 (single isomer, unassigned) [compound 2009] |
| 180 | 31620 | 2640 |  |  |  | Cc1c(CC(=O)N[C@@H](C)c2ccc(F)cc2F)c(=O)[nH]c2ccnc(N)c12 [compound 352] |
| 100000 | 67580 | 100000 |  |  |  | Cc1cc([C@H](C)NC(=O)Cc2cc3c(C#N)nccc3[nH]c2=O)ncc1F [compound 471] |
| 100 | 470 | 60 |  |  |  | C[C@H](NC(=O)Cc1cc2c(Cl)nccc2[nH]c1=O)c1ccc(F)cc1F [compound 439] |
| 130 | 12580 | 2220 |  |  |  | CCOc1nccc2[nH]c(=O)c([C@H](C)C(=O)N[C@@H](C)c3ccc(F)cc3F)c(C(F)(F)F)c12 (single isomer, unassigned) [compound 415] |
| 100000 | 2170 | 140 |  |  |  | COc1nccc2[nH]c(=O)c(CC(=O)N[C@H](C)c3ncc(C#N)cc3F)c(C(F)(F)F)c12 (single isomer, unassigned) [compound 3009] |
| 9120 | 100000 | 8790 |  |  |  | C[C@@H](NC(=O)Cc1c(Cl)c2cnccc2[nH]c1=O)c1ccc(C#N)cn1 [compound 453] |
|  |  |  | 140 | 1000 | 200 | Cc1c(C2(C(=O)N[C@@H](C)c3ncc(C#N)cc3F)CC2)c(=O)[nH]c2ccc(F)c(C(F)(F)F)c12 (single isomer, unassigned) [compound 4802] |
| 100000 | 100000 | 100000 |  |  |  | Cc1nccc2[nH]c(=O)c(CC(=O)N[C@@H](C)c3ccc(O)cc3)c(C)c12 (single isomer, unassigned) [compound 329] |
|  |  |  | 18540 | 100000 | 100000 | COc1ccc2[nH]c(=O)c(CC(=O)N[C@@H](C)c3ncc(F)cc3F)cc2c1C (single isomer, unassigned) [compound 80] |
|  |  |  | 80 | 710 | 230 | Cc1c(C(F)(F)C(=O)N[C@H](C)c2cnc(C#N)cn2)c(=O)[nH]c2ccc(F)cc12 (single isomer, unassigned) [compound 4827] |
| 100000 | 100000 | 100000 |  |  |  | Cc1c(CC(=O)N[C@H](CO)c2ncc(F)cc2F)c(=O)[nH]c2ccnc(C(F)(F)F)c12 [compound 263] |
| 60 | 1800 | 430 |  |  |  | Cc1c(CC(=O)N[C@@H](C)c2ccc(C#N)cn2)c(=O)[nH]c2ccnc(C#N)c12 [compound 158] |
|  |  |  | 4030 | 10130 | 9010 | Cc1c(CC(=O)N[C@H](C)c2cnc(C#N)nc2)c(=O)[nH]c2cc(F)c(F)cc12 (single isomer, unassigned) [compound 2074] |

| Skeletal EC25 ([1]; Y75 value) [nM] | Ventricular EC25 ([2]; Y75 value) [nM] | Atrial EC25 [3, 4] [nM] | Skeletal EC25 ([1]; Y75 value (no ‡ mark)) [nM] | Ventricular EC25 ([2]; Y75 value (no ‡ mark)) [nM] | Atrial EC25 ([3]; Y75 value (no ‡ mark)) [nM] | SMILES |
| --- | --- | --- | --- | --- | --- | --- |
| 100000 | 100000 | 100000 |  |  |  | Cc1c(CC(=O)N[C@H](C)c2ccc(C#N)cn2)c(=O)[nH]c2ccc(OC(F)(F)F)nc12 [compound 449] |
| 970 | 4080 | 2500 |  |  |  | Cc1c(CC(=O)N[C@@H]2COc3cc(F)cc(F)c32)c(=O)[nH]c2ccnc(C#N)c12 (single isomer, unassigned) [compound 273] |
| 1820 | 12240 | 1070 |  |  |  | Cc1nccc2[nH]c(=O)c(CC(=O)N[C@@H](CO)c3ncc(F)cc3F)c(C)c12 (single isomer, unassigned) [compound 308] |
| 16640 | 80590 | 2600 |  |  |  | Cc1c(CC(=O)N[C@@H](C)c2ncc(F)cc2F)c(=O)[nH]c2ccc(C#N)nc12 (single isomer, unassigned) [compound 250] |
|  |  |  | 10 | 70 | 60 | Cc1c(CC(=O)N[C@@H](C)c2ccc(C#N)cc2F)c(=O)[nH]c2ccc(F)c(C#N)c12 [compound 68] |
| 360 | 100000 | 6570 |  |  |  | Cc1c(CC(=O)N[C@H](CO)c2ccc(C#N)cc2F)c(=O)[nH]c2ccnc(C(F)(F)F)c12 (single isomer, unassigned) [compound 224] |
|  |  |  | 100000 | 46610 | 100000 | Cc1cc([C@H](C)NC(=O)Cc2c(O)c3c(C)c(F)ccc3[nH]c2=O)ncc1F [compound 1117] |
| 750 | 6370 | 330 |  |  |  | Cc1nccc2[nH]c(=O)c([C@@H](C)C(=O)N[C@H](C)c3ccc(C#N)cc3F)c(C)c12 (single isomer, unassigned) [compound 183] |
| 400 | 5930 | 4050 |  |  |  | C[C@@H](NC(=O)Cc1cc2c(C#N)nccc2[nH]c1=O)c1ccc(C#N)cn1 [compound 472] |
|  |  |  | 80 | 260 | 90 | C[C@H](NC(=O)Cc1cc2c(F)c(F)ccc2[nH]c1=O)c1ccc(C#N)cn1 [compound 18] |
| 20 | 520 | 90 |  |  |  | Cc1c(CC(=O)N[C@@H](CO)c2ccc(C#N)cc2F)c(=O)[nH]c2ccnc(C#N)c12 (single isomer, unassigned) [compound 242] |
|  |  |  | 9260 | 6560 | 3490 | Cc1c(CC(=O)N[C@@H]2COc3cc(C#N)cnc32)c(=O)[nH]c2ccc(F)cc12 [compound 1062] |
|  |  |  | 100000 | 100000 | 100000 | N#Cc1ccc([C@H](CO)NC(=O)Cc2c(C3CC3)c3cc(F)ccc3[nH]c2=O)c(F)c1 [compound 76] |
| 350 | 20360 | 940 |  |  |  | Cc1c([C@@H](C)C(=O)N[C@@H](C)c2ccc(F)cc2F)c(=O)[nH]c2ccnc(OC(F)(F)F)c12 (single isomer, unassigned) [compound 347] |
|  |  |  | 350 | 11130 | 680 | C[C@H](NC(=O)Cc1cc2c(F)c(F)ccc2[nH]c1=O)c1ncc(C#N)cn1 (single isomer, unassigned) [compound 2072] |
| 130 | 670 | 190 |  |  |  | Cc1c(CC(=O)N[C@@H](CO)c2ncc(F)cc2F)c(=O)[nH]c2ccnc(C#N)c12 [compound 262] |
|  |  |  | 30 | 490 | 60 | CCc1c(CC(=O)N[C@@H](C)c2ccc(F)cc2F)c(=O)[nH]c2ccccc12 [compound 126] |
|  |  |  | 500 | 630 | 1280 | O=C(Cc1cc2cc(F)ccc2[nH]c1=O)N1CC[C@H]2C[C@@H]1c1ccccc12 (single isomer, unassigned) [compound 4502] |
| 3180 | 100000 | 100000 |  |  |  | Cc1nccc2[nH]c(=O)c(CC(=O)N[C@H](C)c3ncc(F)cc3F)c(C)c12 (single isomer, unassigned) [compound 378] |
